Test results as given in PubChem BioAssay (NCI).
Several values for one entry are separate records, joined by “and”; a condition that tells them apart may be missing. Equal values may be shown once.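 Results reflect a 48-hour exposure of cells in 96-well plates to compound at five concentrations. GI50 marks 50% less growth. Definition used: TGI = concentration required for complete inhibition of growth.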

Legend:
Experiment in all cases: NCI-60 cell line screen, 48 h
PC-3 prostate = system: PC-3 prostate
LOX IMVI melanoma = system: LOX IMVI melanoma
SK-MEL-28 melanoma = system: SK-MEL-28 melanoma
OVCAR-5 ovarian = system: OVCAR-5 ovarian
BT-549 breast = system: BT-549 breast
HCT-15 colon = system: HCT-15 colon
HL-60(TB) leukemia = system: HL-60(TB) leukemia
COLO 205 colon = system: COLO 205 colon
CAKI-1 renal = system: CAKI-1 renal
HCC-2998 colon = system: HCC-2998 colon

| SMILES | TGI (PC-3 prostate) [µM] | TGI (LOX IMVI melanoma) [µM] | TGI (SK-MEL-28 melanoma) [µM] | TGI (OVCAR-5 ovarian) [µM] | TGI (BT-549 breast) [µM] | TGI (HCT-15 colon) [µM] | TGI (HL-60(TB) leukemia) | TGI (COLO 205 colon) [µM] | TGI (CAKI-1 renal) [µM] | TGI (HCC-2998 colon) | GI50 (LOX IMVI melanoma) [µM] | GI50 (OVCAR-5 ovarian) [µM] | GI50 (HCC-2998 colon) [µM] | GI50 (HCT-15 colon) [µM] | GI50 (HL-60(TB) leukemia) [µM] | GI50 (COLO 205 colon) [µM] | GI50 (PC-3 prostate) [µM] | GI50 (SK-MEL-28 melanoma) [µM] | GI50 (BT-549 breast) [µM] | GI50 (CAKI-1 renal) [µM] |
| --- | --- | --- | --- | --- | --- | --- | --- | --- | --- | --- | --- | --- | --- | --- | --- | --- | --- | --- | --- | --- |
| O=C1c2ccccc2-c2c1c1ccccc1c(=O)n2Cc1ccco1 | > 100 | > 100 | > 100 | > 100 | > 100 | > 100 | > 100 µM | > 100 | > 100 | – | – | – | – | – | – | – | – | – | – | – |
| CC(Cn1c2c3ccccc3ccc2c2oc(=O)c3ccccc3c21)N(C)C (configuration not stated) | – | > 100 | > 100 | > 100 | – | > 100 | > 100 µM | > 100 | > 100 | – | – | – | – | – | – | – | – | – | – | – |
| CCCN1C(=O)C/C(=C\C(C)=O)Nc2ccccc21 | – | > 100 | > 100 | > 100 | – | > 100 | – | > 100 | > 100 | > 100 µM | – | – | – | – | – | – | – | – | – | – |
| CCCc1c2c([nH]c(=O)c1C)C(=O)c1[nH]c(=O)c(C)c(CCC)c1C2=O | – | 55.3 | > 100 | > 100 | – | 58.3 | 24.8 µM | 55.1 | – | > 100 µM | – | – | – | – | – | – | – | – | – | – |
| COc1ccc2[nH]cc(CCNC(C)=O)c2c1 | – | > 100 | > 100 | > 100 | – | > 100 | > 100 µM | 85.5 | > 100 | – | – | – | – | – | – | – | – | – | – | – |
| CC1=CC=NN2C(=O)[C@H](C)C2C1 (some centres not stated) | – | > 100 | > 100 | > 100 | – | > 100 | > 100 µM | > 100 | – | > 100 µM | – | – | – | – | – | – | – | – | – | – |
| CSC(=S)c1ccc(C(=S)SC)cc1 | – | > 100 | – | > 100 | – | > 100 | > 100 µM | > 100 | > 100 | > 100 µM | – | – | – | – | – | – | – | – | – | – |
| C/C(=N\N=C(N)N)C(CN(CC(C)C)CC(C)C)C(=O)Nc1ccc(C)cc1C (configuration not stated) | – | > 100 | > 100 | > 100 | – | > 100 | > 100 µM | > 100 | > 100 | > 100 µM | – | – | – | – | – | – | – | – | – | – |
| C/C(CN1C(=O)c2ccccc2C1=O)=N\NS(=O)(=O)c1cccc([N+](=O)[O-])c1 | – | – | > 100 | > 100 | – | > 100 | > 100 µM | > 100 | > 100 | > 100 µM | – | – | – | – | – | – | – | – | – | – |
| CC(C)(C)NNC(=O)/C(=C/c1ccc(Oc2ccc(Cl)c(Cl)c2)cc1)NC(=O)c1ccccc1 | – | 40.1 | > 100 | > 100 | – | > 100 | > 100 µM | 36.8 | > 100 | > 100 µM | – | – | – | – | – | – | – | – | – | – |
| O=C1C2C(C(=O)N1O)N(Cc1ccccc1)C(=O)N2Cc1ccccc1 (configuration not stated) | – | > 100 | > 100 | > 100 | – | > 100 | > 100 µM | > 100 | > 100 | > 100 µM | – | – | – | – | – | – | – | – | – | – |
| Cc1ccc(S(=O)(=O)N/N=C(\CCN2CCCC2)CC(c2ccccc2)c2c(O)c3ccccc3oc2=O)cc1 (configuration not stated) | – | > 100 | – | > 100 | – | > 100 | > 100 µM | – | > 100 | – | – | – | – | – | – | – | – | – | – | – |
| COc1cc(Nc2cnc3cc(C(F)(F)F)ccc3n2)cc(OC)c1OC | – | > 100 | > 100 | > 100 | – | > 100 | > 100 µM | > 100 | – | > 100 µM | – | – | – | – | – | – | – | – | – | – |
| Cc1ccc(NC(=O)c2[nH]c(=S)nc(N)c2-c2ccccc2C)cc1C | – | > 100 | > 100 | > 100 | – | > 100 | – | > 100 | > 100 | – | – | – | – | – | – | – | – | – | – | – |
| O=C(CCN1CCN(c2cccc(Cl)c2)CC1)N1CCc2c([nH]c3ccccc23)C1c1cccnc1 (configuration not stated) | – | 20.5 | 26.9 | 23.3 | – | 18 | 5.53 µM and 11.2 µM | 15.6 | 14.3 | 4.04 µM and 8.05 µM | 6.5 | 5.75 | 2.91 | 5.18 | 3.19 | 4.83 | – | – | – | – |
| Nc1ccccc1C#CC#Cc1ccccc1N | > 100 | 19.4 | > 100 | – | 49 | 25.5 | > 100 µM | 75.7 | 18.7 | – | 6.78 | – | – | 11.4 | 3.97 | 22.5 | 23.1 | 48 | 20.5 | 1.36 |
| CC(C)C(C(=O)O)N(CC1(O)OCC(O)C(O)C1O)N=O (configuration not stated) | – | > 100 | > 100 | > 100 | – | – | > 100 µM | > 100 | – | > 100 µM | – | – | – | – | – | – | – | – | – | – |
| O=C(Cc1nc2ccccc2s1)C(=O)Nc1ccc(Cl)cc1 | – | > 100 | > 100 | > 100 | – | > 100 | > 100 µM | > 100 | > 100 | > 100 µM | – | – | – | – | – | – | – | – | – | – |
| COC(=O)c1c[nH]cc1CCc1c[nH]cc1C(=O)OC | – | > 100 | > 100 | > 100 | – | > 100 | > 100 µM | > 100 | > 100 | > 100 µM | – | – | – | – | – | – | – | – | – | – |
